For the test, the target named is T1, Cdk4/cyclin D1 (Homo sapiens, UniProt P11802).
T1 construct: made in house; host or cells: Sf9 insect cells
The test can be described thus: Biochemical kinase assay Cdk4/cyclin D1. Particulars: Table 6. A digest of the protocol: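 Sf9-expressed Cdk/cyclin heterodimers phosphorylate GST-Rb (residues 379–928, 40 μg) with 50 μM ATP plus [γ-33P]ATP, pH 7.5, 10% DMSO, 15 min at 30 °C. Compounds 1 nM–10 μM. 33P captured on glutathione-sepharose and scintillation-counted; activity relative to DMSO control after EDTA-background subtraction.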

T1 sequence (P11802 whole entry, species assumed): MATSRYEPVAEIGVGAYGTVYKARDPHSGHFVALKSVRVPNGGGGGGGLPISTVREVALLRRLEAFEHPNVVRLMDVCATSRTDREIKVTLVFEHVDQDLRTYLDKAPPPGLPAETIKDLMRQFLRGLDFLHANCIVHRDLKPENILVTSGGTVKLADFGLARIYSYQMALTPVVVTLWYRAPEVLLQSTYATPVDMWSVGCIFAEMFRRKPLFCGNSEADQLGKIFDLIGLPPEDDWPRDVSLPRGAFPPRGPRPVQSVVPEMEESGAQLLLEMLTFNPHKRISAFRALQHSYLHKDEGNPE
T1 sequence (P24385 whole entry partner, species assumed): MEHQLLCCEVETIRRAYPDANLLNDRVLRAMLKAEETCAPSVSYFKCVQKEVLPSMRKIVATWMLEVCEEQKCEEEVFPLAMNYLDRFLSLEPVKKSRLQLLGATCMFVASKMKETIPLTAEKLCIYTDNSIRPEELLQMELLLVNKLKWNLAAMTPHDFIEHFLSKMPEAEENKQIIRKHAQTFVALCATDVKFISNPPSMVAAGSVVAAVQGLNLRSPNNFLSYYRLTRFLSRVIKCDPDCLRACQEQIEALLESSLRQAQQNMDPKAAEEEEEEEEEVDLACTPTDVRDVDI

A word on the IC50: it is the point on the concentration scale where inhibition reaches its midpoint. The low end stands for greater potency in that assay, the high end for weaker potency in that assay. Regarding `CC(C)N1CCN(C(=O)COc2ccc(-c3[nH]nc4c3C(=O)c3c(NC(=O)NN5CCOCC5)cccc3-4)cc2)CC1.Cl` [Compound A37], the 50% inhibitory concentration (IC50) is under 100 nM.

Source of the values: patent US7605175B2, “Inhibitors of cyclin-dependent kinases, compositions and uses related thereto” (GPC Biotech AG, priority 2001, dated 2009).
